Results on 6 compounds are retold here after publication PMC9268102, “Design, Synthesis and Biological Evaluation of 1,3,5-Triazine Derivatives Targeting hA1 and hA3 Adenosine Receptor” (Molecules, 2022).

Broadly, the Ki is a measure of affinity in units of concentration, obtained from inhibition or displacement. One may read the inhibition as the percentage by which the read-out fell short of the control.

Where “and” joins values, the source holds several entries; their conditions need not be identical. Equal entries are not always repeated. Where two headings read alike, the source gives them in different places.

Test [1] has as its target T1, hA2A AR (Homo sapiens, UniProt P29274).
T1 construct: expressed in transfected cells; host or cells: Hela-A2A cell line
Particulars: cited from earlier work; for Ki: read-out: Ki at hA2AAR.

The target of test [2] is T2, hA1 AR (Homo sapiens, UniProt P30542).
T2 construct: host or cells: CHO-A1 (CHO cells expressing hA1 AR)
T2 sequence (P30542 1-326): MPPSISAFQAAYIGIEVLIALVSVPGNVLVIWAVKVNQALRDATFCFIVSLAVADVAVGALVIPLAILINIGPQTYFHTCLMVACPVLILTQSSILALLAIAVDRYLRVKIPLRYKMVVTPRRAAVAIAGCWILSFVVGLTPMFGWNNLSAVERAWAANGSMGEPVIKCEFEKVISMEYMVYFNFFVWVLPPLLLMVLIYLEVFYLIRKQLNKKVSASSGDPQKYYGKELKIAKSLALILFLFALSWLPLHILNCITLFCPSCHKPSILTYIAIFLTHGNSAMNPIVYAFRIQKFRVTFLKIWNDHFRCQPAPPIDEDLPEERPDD
As to conditions: read-out: Ki at hA1AR; cited from earlier work.

For test [3], the target named is T3, hA3 AR (Homo sapiens, UniProt P0DMS8).
T3 sequence (P0DMS8 1-318): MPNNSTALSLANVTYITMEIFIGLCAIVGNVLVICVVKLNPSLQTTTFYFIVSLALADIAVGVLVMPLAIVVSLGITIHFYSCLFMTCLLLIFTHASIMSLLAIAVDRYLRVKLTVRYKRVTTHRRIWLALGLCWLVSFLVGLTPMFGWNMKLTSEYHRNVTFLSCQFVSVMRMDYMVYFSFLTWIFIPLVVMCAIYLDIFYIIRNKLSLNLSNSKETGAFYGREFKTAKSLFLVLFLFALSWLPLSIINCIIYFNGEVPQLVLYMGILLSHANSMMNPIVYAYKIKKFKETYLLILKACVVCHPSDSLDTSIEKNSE
Set-up: expressed in transfected cells; host or cells: Hela-A3 cell line; method as in PMID 31280999, PMID 31780082, PMID 27531666. Particulars: read-out: Ki at hA3AR; cited from earlier work.

Test [4] addresses T3, hA3 AR. The experiment in a line: Radioligand competition binding assay at hA3 AR. Particulars: [3H]NECA. Set-up: expressed in transfected cells; host or cells: Hela-A3 cell line. The protocol: (§1) All the synthesized compounds were screened with radioligand binding assays at hARs. First, the percentage of inhibition was measured by treatment of each hAR subtype with 10 μM of each compound (Table 1).
(§2) hA1, hA2A, and hA3 AR competition binding experiments were carried out in a multiscreen GF/C 96-well plate (Millipore, Madrid, Spain) pretreated with binding buffer (Hepes 20 mM, NaCl 100 mM, MgCl2 10 mM, 2 U/mL adenosine deaminase, pH = 7.4 for hA1 AR; Tris-HCl 50 mM, EDTA 1 mM, MgCl2 10 mM, 2 U/mL adenosine deaminase, pH = 7.4 for hA2A AR; and Tris-HCl 50 mM, EDTA 1 mM, MgCl2 5 mM, 2 U/mL adenosine deaminase, pH = 7.4 for hA3 AR, respectively). In each well was incubated 5 µg of membranes from Euroscreen CHO-A1 cell line, 5µg of membranes from Hela-A2A cell line, or 30µg of membranes from Hela-A3 cell line and prepared in laboratory: 1 nM [^3H]-DPCPX (140 Ci/mmol, 1 mCi/Ml, Perkin Elmer NET974001MC) for hA1 AR; 1 nM [^3H]-ZM241385 (50 Ci/mmol, 1 mCi/mL, ARC-ITISA 0884) for hA2A AR; and 10 nM [^3H]-NECA (29.6 Ci/mmol, 1 mCi/mL, Perkin Elmer NET811250UC) for hA3 AR, respectively; and the compounds studied according to standard protocol. Non-specific binding was determined in the presence of R-PIA 10 µM (Sigma P4532) for hA1 AR; of NECA 50 µM (Sigma E2387) for hA2A AR; and of R-PIA 100 µM (Sigma P4532) for hA3 AR, respectively. The reaction mixture (Vt: 200 µL/well) was incubated at 25 °C for 60 min (hA1 AR), 30min (hA2A AR), or 180min (hA3 AR); whereafter it was filtered and washed four times (hA1 and hA2A AR) or six times (hA3 AR) with 250 μL wash buffer (Hepes 20 mM, NaCl 100 mM, MgCl2 10 mM pH = 7.4, for hA1 AR; Tris-HCl 50 mM, EDTA 1 mM, MgCl2 10 mM, pH = 7.4, for hA2A AR; and Tris-HCl 50mM pH = 7.4, for hA3 AR, respectively) before being measured in a microplate beta scintillation counter (MicrobetaTrilux, PerkinElmer, Madrid, Spain).
On the technique in general: In a radioligand displacement assay an active substance lowers the binding of a labelled ligand.

Test [5] addresses T2, hA1 AR. The experiment in a line: Radioligand competition binding assay at hA1 AR. As to conditions: 10 μM compound; [3H]DPCPX; CHO cells; read-out: Percentage Inhibition (%) at 10 μM, hA1 AR. As to the method:
as §1, §2

The next test addresses T4, hA2B AR (Homo sapiens, UniProt P29275).
T4 construct: host or cells: HEK-A2B (HEK-293T-A2B) cell line
T4 sequence (P29275 1-332): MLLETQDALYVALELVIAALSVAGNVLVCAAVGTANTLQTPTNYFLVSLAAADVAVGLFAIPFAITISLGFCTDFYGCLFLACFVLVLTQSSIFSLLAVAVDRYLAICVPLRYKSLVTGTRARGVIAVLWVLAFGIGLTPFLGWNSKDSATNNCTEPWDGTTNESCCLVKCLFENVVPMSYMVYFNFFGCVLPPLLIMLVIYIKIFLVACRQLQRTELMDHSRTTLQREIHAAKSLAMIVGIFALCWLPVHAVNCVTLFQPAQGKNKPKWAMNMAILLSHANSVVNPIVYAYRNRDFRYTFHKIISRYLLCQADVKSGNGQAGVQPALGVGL
The experiment in a line: Radioligand competition binding assay at hA2B AR. Particulars: 10 μM compound; [3H]DPCPX; HEK-293 cells; read-out: Percentage Inhibition (%) at 10 μM, hA2B AR. The protocol:
as §1
hA2B AR competition binding experiments were carried out in a multiscreen GF/C 96-well plate. In each well was incubated 25 µg of membranes from Euroscreen HEK-A2B cell line and prepared in laboratory, 25 nM [^3H]-DPCPX (140 Ci/mmol, 1 mCi/mL, Perkin Elmer NET974001MC) and compounds studied according to standard protocol. Non-specific binding was determined in the presence of NECA 1000 µM (Sigma E2397). The reaction mixture (Vt: 250 µL/well) was incubated at 25°C for 30 min, 200 µL was transferred to GF/C 96-well plate (Millipore, Madrid, Spain), and pretreated with binding buffer (Tris-HCl 50 Mm, EDTA 1 mM, MgCl2 5 mM, Bacitracin […], adenosine deaminase 2 U/Ml, pH = 6.5). It was then filtered and washed four times with 250 μL wash buffer (Tris-HCl 50 mM, EDTA 1 mM, MgCl2 5 mM, pH = 6.5), before being measured in a microplate beta scintillation counter (MicrobetaTrilux, PerkinElmer, Madrid, Spain).

Test [6] has as its target T1, hA2A AR. The experiment in a line: Radioligand competition binding assay at hA2A AR. Particulars: 10 μM compound; [3H]ZM241385; Hela cells; read-out: Percentage Inhibition (%) at 10 μM, hA2A AR. The protocol: as §1, §2

T1 sequence (P29274 whole entry): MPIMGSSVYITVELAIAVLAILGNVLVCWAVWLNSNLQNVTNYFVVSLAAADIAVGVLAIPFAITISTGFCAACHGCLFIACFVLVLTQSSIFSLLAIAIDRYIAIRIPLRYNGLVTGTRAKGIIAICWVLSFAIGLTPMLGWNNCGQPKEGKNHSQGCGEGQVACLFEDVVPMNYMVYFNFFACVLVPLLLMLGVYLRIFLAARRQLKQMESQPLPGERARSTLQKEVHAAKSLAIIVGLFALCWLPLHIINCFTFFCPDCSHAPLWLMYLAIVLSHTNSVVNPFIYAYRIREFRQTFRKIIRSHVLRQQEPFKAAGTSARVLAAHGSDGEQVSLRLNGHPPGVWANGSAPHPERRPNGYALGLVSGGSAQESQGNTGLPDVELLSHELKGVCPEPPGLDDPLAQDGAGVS

As to `Nc1nc(NCCc2ccc(O)cc2)nc(Nc2nnc(-c3ccc(Cl)cc3)s2)n1` [Compound 5], on hA2A AR [1], the “Selectivity hA1/hA2AAR” value is 11.66 and the Ki was 44.6 nM. Also, the Ki on hA1 AR [2] is 520 nM.
`Nc1nc(NCCc2ccc(O)cc2)nc(Nc2nc(-c3ccc(F)cc3)cs2)n1` [Compound 6]: the “Selectivity hA1/hA2AAR” value at hA2A AR [1] is 319 and 318.9. In addition, the Ki at hA1 AR [2] was 478 nM.
On to `COc1cc(Cl)ccc1Nc1nc(N)nc(-c2oc3ccccc3c2C)n1` [Compound 4], for which the “Selectivity hA1/hA2AAR” value on hA2A AR [1] is given as 2.94. Besides, the Ki on hA2A AR [1] was 490 nM; at hA1 AR [2], 1440 nM.
For the compound `CN1CCN(c2nc(-c3cccc(O)c3)nc3[nH]cnc23)CC1` [Compound 1], the results for the Ki at hA3 AR [3] and on hA1 AR [2] were 6.3 nM and 6.8 nM, respectively.
In the case of `Cc1ccsc1/C=C/c1nc(N)nc(-c2ccccc2O)n1` [Compound 3], the “Selectivity hA1/hA2AAR” value on hA2A AR [1] is listed as 9.5. In addition, on hA1 AR [2], the inhibitory constant (Ki) is 32.9 nM.
On to `Nc1nc(Nc2cccc(C(F)(F)F)c2)nc(-c2ccc(O)cc2)n1` [Compound 9d, 4-(4-amino-6-{[3-(trifluoromethyl)phenyl]amino}-1,3,5-triazin-2-yl)phenol], for which the “Percentage Inhibition (%) at 10 μM, hA3 AR” value on hA3 AR [4] (10 μM compound, 10 µM) is 95 ± 1%. The inhibition at 10 µM on hA3 AR [4] (10 μM compound, read-out: Percentage Inhibition (%) at 10 μM, hA3 AR) is over 95%; at hA1 AR [5] it was 69 ± 2%; on hA2B AR, 74 ± 1%; at hA2A AR [6], 40 ± 5%. Besides, the Ki on hA3 AR [4] was determined as 1260 nM.
